PMC6600181, “Reversal of MK-801-Induced Disruptions in Social Interactions and Working Memory with Simultaneous Administration of LY487379 and VU152100 in Mice” (International Journal of Molecular Sciences, 2019)

Experiments:
MK-801-treated mice [1] = test: Social interaction test (MK-801-induced disruptions); format: in vivo, mice (male CD1); settings: for treatment of deficits in social interactions induced by prolonged MK-801: compounds acutely 24 h later, 30 min before test, LY487379 0.25, 0.5, 1 mg/kg, VU152100 0.1, 0.25, 5 mg/kg; for prevention of MK-801-induced deficits in social interactions: acute, 30 min before acute MK-801
Experimental: (§1) Schedules of administration are presented graphically in Figure 1. […] Different vehicles were used throughout the study: (1) 0.9% NaCl, (2) 10% Tween 80 or (3) 10% Tween 80 containing 2% DMSO. Vehicles were administered to all animals (e.g., control mice, MK-801-treated mice) in the same schedule as drugs were administered to the drug-treated appropriate groups of mice.
(§2) Male CD1 mice (Charles River, Germany) weighing 20–25 g at the time of arrival were used in behavioural experiments. Animals were kept in standard laboratory cages T3 (265 × 420 × 180 mm, with an area of 825 cm^2), grouped at 10 mice per cage. Animals were kept under standard laboratory conditions (12:12 light:dark cycle, 21–22 °C) with free access to food and water. Animal welfare has been regularly controlled by a veterinarian and animal welfare committee. After 3–4 weeks of acclimatization and handling, the experiments began. Experimental groups consisted of 8 to 10 animals, depending on the procedure. Drugs were administered intraperitoneally (i.p.) at a volume of 10 mL/kg. Experimental assessments were performed by an observer who was blinded to treatment conditions. All procedures described herein were conducted in accordance with the European Communities Council Directive of 22 September 2010 (2010/63/EU) and Polish legislation acts concerning animal experimentation and were approved by the II Local Ethics Committee by the Institute of Pharmacology, Polish Academy of Sciences in Krakow (18/2019, 21.01.2019).
This procedure was adapted from de Moura Linck et al. and performed as described in our previous papers. Habituation and test trials were performed in a black plastic rectangular arena (40 × 30 × 35 cm) illuminated with a light intensity of 335 lux. During the habituation trial (2 consecutive days), each animal was allowed to explore the arena for 10 min. The test trial was conducted the following day, during which body-weight-matched mice (± 10% difference) from two different cages were placed into the arena for 10 min. Social interactions between the two mice were determined based on the total time spent participating in social behaviours, such as sniffing, genital investigation and chasing.

MK-801-treated mice [2] = test: Novel object recognition test (MK-801-induced disruptions); format: in vivo, mice (male CD1); settings: for treatment of deficits in novel object recognition induced by prolonged MK-801: compounds acutely 24 h later, 30 min before test, LY487379 0.1, 0.5, 1 mg/kg, VU152100 0.1, 0.25, 1 mg/kg; for prevention of MK-801-induced disruptions in object recognition: acute, 30 min before acute MK-801
Experimental: as §1, §2
This procedure was adapted from Nilsson et al. and performed as described in a variety of our previous papers. Habituation, training and test trials were performed in a black plastic rectangular arena (40 × 30 × 35 cm) illuminated with a light intensity of 335 lux. During the habituation trial (2 consecutive days), each animal was allowed to explore the arena for 10 min. The next day, during the training trial (T1), mice were placed in the arena and were presented with two identical objects (red glass cylinder; 6.5 cm in diameter and 4.5 cm high) for 5 min. After 1 h, animals were placed back into the arena for a 5 min test trial, during which one of the previously presented familiar objects was replaced with a novel object (a transparent glass elongated sphere-like object with an orange cap; 5.5 cm in diameter and 8.5 cm high). Time spent exploring (i.e., sniffing or touching) the familiar (Tfamiliar) and novel (Tnovel) objects was measured by a trained observer, and the recognition index [%] was calculated for each mouse [(Tnovel – Tfamiliar)/(Tfamiliar + Tnovel)] * 100.

MK-801-treated mice [3] = test system: MK-801-treated mice; parameters: method as in PMID 30054675; settings: acute MK-801 model; cited from earlier work
MK-801-treated mice [4] = test system: MK-801-treated mice; parameters: method as in PMID 30054675; settings: acute MK-801 model; cited from earlier work; remark: listed apart in the source

SMILES: COc1ccccc1Oc1ccc(N(Cc2cccnc2)S(=O)(=O)CC(F)(F)F)cc1 [LY487379]
- treatment of deficits in social interactions induced by prolonged MK-801 (MK-801-treated mice [1]; MK-801 0.3 mg/kg for 7 days): treated MK-801-induced deficits at all administered doses
- effect on social behaviour when given alone (MK-801-treated mice [1]; compound alone, without MK-801): no effect on social behaviour
- prevention of MK-801-induced deficits in social interactions (MK-801-treated mice [1]; dose 0.5 mg/kg i.p.): ineffective
- prevention of MK-801-induced deficits in social interactions (MK-801-treated mice [1]; doses of 1 and 3 mg/kg i.p.): prevented the MK-801-induced deficits
- treatment of deficits in novel object recognition induced by prolonged MK-801 (MK-801-treated mice [2]; MK-801 0.3 mg/kg for 7 days): treated the MK-801-induced deficits at all administered doses
- effect on learning abilities when given alone (MK-801-treated mice [2]; compound alone, without MK-801): no effect on learning abilities
- prevention of MK-801-induced disruptions in object recognition (MK-801-treated mice [2]; dose 0.5 mg/kg i.p.): ineffective
- prevention of MK-801-induced disruptions in object recognition (MK-801-treated mice [2]; doses of 1 and 3 mg/kg i.p.): prevented MK-801-induced disruptions in object recognition

SMILES: C[C@]12N[C@H](Cc3ccccc31)c1ccccc12 [MK-801]
- induction of deficits in social interactions (MK-801-treated mice [1]; MK-801 0.3 mg/kg for 7 days, observed 24 h after the last injection): induced deficits in social interactions
- induction of deficits in novel object recognition (MK-801-treated mice [2]; MK-801 0.3 mg/kg for 7 days, observed 24 h after the last administration): induced deficits in the novel object recognition paradigm

SMILES: COc1ccc(CNC(=O)c2sc3nc(C)cc(C)c3c2N)cc1 [VU152100]
- sub-effective dose in novel object recognition (MK-801-treated mice [3]): 0.25 mg/kg
- treatment of deficits in social interactions induced by prolonged MK-801 (MK-801-treated mice [1]; MK-801 0.3 mg/kg for 7 days): treated MK-801-induced deficits at all administered doses
- treatment of deficits in novel object recognition induced by prolonged MK-801 (MK-801-treated mice [2]; MK-801 0.3 mg/kg for 7 days): treated the MK-801-induced deficits at all administered doses
- sub-effective dose in social interaction (MK-801-treated mice [4]): 0.5 mg/kg
